Patent US20180207264A1, “PORCINE IMMUNE MODULATION MODEL” (Government of the United States as Represented by the …, priority 2017, published 2018)

What was measured:
293T cells = assay: Biological function (phenotype, mobile cells) of androstene hormone treatments in 293T cells; type: cell-based, human; conditions: androstene hormone 25 μM
Protocol: A non-toxic vehicle for administration of androstene hormones according to embodiments of the present invention was prepared from a first solution and a second solution. The first solution, comprising liposomal formulation, was placed in PEG 300 to a concentration of 5% and heated in a sonicating water bath to about 45° C. The second solution, comprising a selected hormone (one or more of 5Δ-androsten-3β, 17α-diol, 5Δ-androsten-3β, 17β-diol, or 5Δ-androsten-3β,7β,17β-triol), was placed in PEG 300 and heated in a sonicating water bath to about 45° C. The first and second solutions were then combine and stirred until dissolved.
Biological function was tested in 293T cells, which is a human embryonic cell line transformed with Large T antigen […] SV40. This hypotriploid (polyploid) cell line is particularly useful in such transformation studies and has very distinct phenotypes when grown. All androstene hormone treatment applications were at concentrations of 25 μM.

[1] = test system: MDA-MB-231 breast cancer cell; assay: Cell death in hormone independent ER/PR negative breast cancer cell cultures; type: cell-based; conditions: 25 μM β-AED, 25 μM β-AET, 5 nM E2; PEG 300 with LIPOFECTAMINE vehicle
Protocol: (§1) Hormone dependent, noninvasive, epithelial phenotype (ER/PR positive MCF-7 breast cancer cells) and hormone independent, invasive, mesenchymal phenotype (ER/PR negative MDA-MB-231 breast cancer cell) cell suspensions were acquired and prepared in complete medium (DMEM/F12, 10% FBS, 1% penicillin/streptomycin (Gibco)). Cellular concentration was adjusted to 2×10^5 cells/mL.
(§2) Androstene hormone solutions according to embodiments of the present invention were prepared from a first solution and a second solution. For the first solution, 3.0 mg of β-AED or 3-AET was added to warm PEG 300 to prepare 50 mM stock. For the second solution, 10 μL of LIPOFECTAMINE (3:1 DOSPA:DOPE) was introduced to 100 μL of PEG 300, mixed, and incubated in a water bath at 42° C. for 30 min. The first and second solutions were then mixed in a sonicator water bath at 42° C. for 1 hr. The final concentration was 50 mM β-AED (or AET, as used).
(§3) A β-estradiol solution was also prepared by adding 2.7 mg of β-estradiol to 200 μL warmed PEG 300 with LIPOFECTAMINE and then further diluted 1:1000 with PEG-300. The final concentration was 50 μM.
A diluted β-AED (or 3-AET) solution was prepared with complete medium at a final concentration of 50 μM (1:1000 dilute of 50 mM). Likewise, a diluted β-E2 solution was prepared with complete medium at a final concentration of 10 nM (1:5000 dilute of 50 μM). […]

[2] = test system: MCF-7 breast cancer cells; assay: Cell death and cell growth in hormone dependent ER/PR positive breast cancer cell cultures; type: cell-based; conditions: 5 nM E2; for MCF7 Cell Death Amount: 25 μM β-AED, 25 μM β-AET, PEG 300 with LIPOFECTAMINE vehicle
Protocol: as §1, §2, §3
A diluted β-AED (or 3-AET) solution was prepared with complete medium at a final concentration of 50 μM (1:1000 dilute of 50 mM). Likewise, a diluted β-E2 solution was prepared with complete medium at a final concentration of 10 nM (1:5000 dilute of 50 μM).
Using a 24-well plate, mixtures of 0.5 mL of cells per well with 0.5 mL of medium diluted hormone vehicle. Cell cultures were maintained at 90% humidity, 7% CO2, and 37° C.

[3] = grown for 5 days, 25 μM androstene hormone, PEG 300 with 5% LIPOFECTAMINE

Structure (SMILES) | Phenotype of 293T cells (cell islands, mobile cells, cell processes) (293T cells; vehicle PEG 300) | Phenotype of 293T cells (cell islands, mobile cells, cell processes) (293T cells; vehicle PEG 300 and LIPOFECTAMINE) | MDA-MB-231 Cell Death Amount [1] | MCF7 Cell Death Amount [2] | Cell growth / cell density of MCF-7 cells compared with vehicle (FIG. 14) [2, 3] | Particles / cell bodies produced by MCF-7 cells in response to treatment [2, 3]
C[C@]12CC[C@H]3[C@@H](CC=C4C[C@@H](O)CC[C@@]43C)[C@@H]1CC[C@@H]2O [β-AED, androst-5-ene-3β, 17β-diol] | cell islands are larger and there is a significant reduction in mobile cells | drastic decrease in, or morphological change, in mobile elements | Not observed | Not observed | not as heath and there are areas of decreased density | small particles
C[C@]12CC[C@H]3[C@@H]([C@@H](O)C=C4C[C@@H](O)CC[C@@]43C)[C@@H]1CC[C@@H]2O [β-AET, 5-androstene-3β,7β, 17β-triol] | – | – | Not observed | Not observed | – | –
